Measured values: patent USRE50663E1, “Heterocycle derivatives as pesticides” (Bayer Aktiengesellschaft, priority 2017, dated 2025)
Where two headings read alike, the source gives them in different places. Each block holds one molecule with its values, some of them ahead of it.

Key:
[1] = tested on: adult cat fleas (Ctenocephalides felis); assay: Ctenocephalides felis in vitro contact test with adult cat fleas; format: in vivo; conditions: application rate 5 μg/cm^2 (=500 g/ha), after 48 h, dead or moribund fleas
Procedure: For the coating of the test tubes, 9 mg of active compound are first dissolved in 1 ml of acetone p.a. and then diluted to the desired concentration with acetone p.a. 250 μl of the solution are distributed homogeneously on the inner walls and the base of a 25 ml glass tube by turning and rocking on an orbital shaker (rocking rotation at 30 rpm for 2 h). With 900 ppm of active compound solution and internal surface area 44.7 cm^2, given homogeneous distribution, an area-based dose of 5 μg/cm^2 is achieved.
After the solvent has evaporated off, the tubes are populated with 5-10 adult cat fleas (Ctenocephalides felis), sealed with a perforated plastic lid and incubated in a horizontal position at room temperature and ambient humidity. After 48 h, efficacy is determined. To this end, the tubes are stood upright and the fleas are knocked to the base of the tube. Fleas which remain motionless at the base or move in an uncoordinated manner are considered to be dead or moribund.
100% efficacy means that all the fleas were dead or moribund. 0% efficacy means that no fleas were harmed.

[2] = tested on: adult cat fleas (Ctenocephalides felis); assay: Ctenocephalides felis oral test; format: in vivo; conditions: 48 h, read-out: efficacy (kill)
Procedure: (§1) Solvent: dimethyl sulfoxide
To produce a suitable active compound formulation, 10 mg of active compound are mixed with 0.5 ml of dimethyl sulfoxide. Dilution with citrated cattle blood gives the desired concentration.
About 20 unfed adult cat fleas (Ctenocephalides felis) are placed into a chamber which is closed at the top and bottom with gauze. A metal cylinder whose bottom end is closed with parafilm is placed onto the chamber. The cylinder contains the blood/active compound formulation, which can be imbibed by the fleas through the parafilm membrane.
After 2 days, the kill in % is determined. 100% means that all of the fleas have been killed; 0% means that none of the fleas have been killed.

[3] = tested on: L1 larvae of the Australian sheep blowfly (Lucilia cuprina); assay: Lucilia cuprina test; format: in vivo; conditions: 48 h, read-out: efficacy (kill)
Procedure: as §1
To produce a suitable active compound formulation, 10 mg of active compound are mixed with 0.5 ml of dimethyl sulfoxide, and the concentrate is diluted with water to the desired concentration.
About 20 L1 larvae of the Australian sheep blowfly (Lucilia cuprina) are transferred into a test vessel containing minced horsemeat and the active compound formulation of the desired concentration.
After 2 days, the kill in % is determined. 100% means that all the larvae have been killed; 0% means that no larvae have been killed.

[4] = tested on: green peach aphids (Myzus persicae); assay: Myzus persicae oral test; format: in vivo; conditions: 120 h, read-out: efficacy
Procedure: Solvent: 100 parts by weight of acetone
To produce a suitable active compound formulation, 1 part by weight of active compound is dissolved with the stated parts by weight of solvent and made up to the desired concentration with water.
50 μl of the active compound formulation are transferred into microtitre plates and made up to a final volume of 200 μl with 150 μl of IPL41 insect medium (33%+15% sugar). Subsequently, the plates are sealed with parafilm, which a mixed population of green peach aphids (Myzus persicae) within a second microtitre plate is able to puncture and imbibe the solution.
(§2) After 5 days, the efficacy in % is determined. 100% means that all the aphids have been killed; 0% means that no aphids have been killed.

[5] = tested on: green peach aphid (Myzus persicae); assay: Myzus persicae spray test; format: in vivo; conditions: foliar, 120 h, read-out: efficacy
Procedure: Solvent: 78 parts by weight of acetone • • 1.5 parts by weight of dimethylformamide
(§3) Emulsifier: alkylaryl polyglycol ether
(§4) To produce a suitable active compound formulation, 1 part by weight of active compound is dissolved with the specified parts by weight of solvent and made up to the desired concentration with water containing an emulsifier concentration of 1000 ppm. To produce further test concentrations, the formulation is diluted with emulsifier-containing water.
Discs of Chinese cabbage leaves (Brassica pekinensis) infested by all stages of the green peach aphid (Myzus persicae) are sprayed with an active compound formulation of the desired concentration.
as §2

[6] = tested on: larvae of the mustard beetle (Phaedon cochleariae); assay: Phaedon cochleariae spray test; format: in vivo; conditions: foliar, 168 h, read-out: efficacy
Procedure: (§5) Solvent: 78.0 parts by weight of acetone • • 1.5 parts by weight of dimethylformamide
as §3, §4
Discs of Chinese cabbage leaves (Brassica pekinensis) are sprayed with an active compound formulation of the desired concentration and, after drying, populated with larvae of the mustard beetle (Phaedon cochleariae).
After 7 days, the efficacy in % is determined. 100% means that all the beetle larvae have been killed; 0% means that no beetle larvae have been killed.

[7] = tested on: caterpillars of the fall armyworm (Spodoptera frugiperda); assay: Spodoptera frugiperda spray test; format: in vivo; conditions: foliar, 168 h, read-out: efficacy
Procedure: as §5, §3, §4
Leaf discs of maize (Zea mays) are sprayed with an active compound formulation of the desired concentration and, after drying, populated with caterpillars of the fall armyworm (Spodoptera frugiperda).
After 7 days, the efficacy in % is determined. 100% means that all the caterpillars have been killed; 0% means that no caterpillar has been killed.

[8] = logP by HPLC on reversed-phase column (C18), acidic range; format: physicochemical; conditions: formic acid in water/acetonitrile
Procedure: The logP values were determined according to EEC Directive 79/831 Annex V.A8 by HPLC (high-performance liquid chromatography) on a reversed-phase column (C18) using the following methods:
Calibration was carried out using a homologous series of straight-chain alkan-2-ones (having 3 to 16 carbon atoms) with known logP values. The values between successive alkanones are determined by linear regression.

[9] = 100 ppm in citrated cattle blood, after 2 days
[10] = 100 g/ha, after 5 days, Chinese cabbage leaf discs
[11] = 100 g/ha, after 7 days, Chinese cabbage leaf discs
[12] = 100 g/ha, after 7 days, maize leaf discs
[13] = reversed-phase HPLC column (C18)

SMILES: CCS(=O)(=O)c1c(-c2nc3cc(C(F)(F)F)cnc3n2C)nc2cc(NC(=O)OC3CCC3)ccn12 [Example I-02]
efficacy [1]: 100% | pest or weed control at 100 ppm [2, 9]: 100% | pest or weed control at 100 ppm [3]: 100% | pest or weed control at 4 ppm [4]: 100% | pest or weed control at 100 g/ha ([5]; in Brassica rapa): 70% | pest or weed control at 100 g/ha ([6]; in Brassica rapa): 67% | pest or weed control at 100 g/ha ([7]; in Zea mays): 83%

SMILES: C=CCOC(=O)Nc1ccn2c(S(=O)(=O)CC)c(-c3nc4cc(C(F)(F)F)cnc4n3C)nc2c1 [Example I-17]
pest or weed control at 100 ppm [2, 9]: 100% | pest or weed control at 100 g/ha ([6]; in Brassica rapa): 100% | pest or weed control at 100 g/ha ([7]; in Zea mays): 100%

SMILES: CCS(=O)(=O)c1c(-c2nc3cc(C(F)(F)F)cnc3n2C)nc2cc(NC(=O)OCC3CC3)ccn12 [Example I-04]
pest or weed control at 100 ppm [2, 9]: 100% | pest or weed control at 100 ppm [3]: 100% | pest or weed control at 100 g/ha ([6]; in Brassica rapa): 100% | pest or weed control at 100 g/ha ([7]; in Zea mays): 100%

SMILES: CCS(=O)(=O)c1c(-c2nc3cc(OC(F)(F)F)cnc3n2C)nc2cc(C3(C#N)CC3)ccn12 [Example I-29]
pest or weed control at 100 g/ha [5, 10]: 90% | pest or weed control at 100 g/ha [6, 11]: 100% | pest or weed control at 100 g/ha [7, 12]: 100%

chromatographic logP [8, 13]: 2.22
SMILES: CCOC(=O)c1nc2cc(Br)ccn2c1S(=O)(=O)CC [Ethyl 7-bromo-3-(ethylsulfonyl)imidazo[1,2-a]pyridine-2-carboxylate]

chromatographic logP [8, 13]: 1.52
SMILES: CCS(=O)(=O)c1c(C(=O)O)nc2cc(Br)ccn12 [7-Bromo-3-(ethylsulfonyeimidazo[1,2-a]pyridine-2-carboxylic acid]

chromatographic logP [8, 13]: 2.28
SMILES: CCS(=O)(=O)c1c(-c2nc3cc(C(F)(F)F)cnc3n2C)nc2cc(NC(C)=O)ccn12 [N-{3-(Ethylsulfonyl)-2-[3-methyl-6-(trifluoromethyl)-3H-imidazo[4,5-b]pyridin-2-yl]imidazo[1,2-a]pyridin-7-yl}acetamide]

SMILES: CCS(=O)(=O)c1c(-c2nc3cc(C(F)(F)F)cnc3n2C)nc2cc(NC(=O)OC3(C)CC3)ccn12 [Example I-08, 1-Methylcyclopropyl-{3-(ethylsulfonyl)-2-[3-methyl-6-(trifluoromethyl)-3H-imidazo[4,5-b]pyridin-2-yl]imidazo[1,2-a]pyridin-7-yl}carbamate]
chromatographic logP [8]: 3.14 | pest or weed control at 100 ppm [2]: 100% | pest or weed control at 100 ppm [3]: 100% | pest or weed control at 4 ppm [4]: 100% | pest or weed control at 100 g/ha ([6]; in Brassica rapa): 100% | pest or weed control at 100 g/ha ([7]; in Zea mays): 100%

chromatographic logP [8, 13]: 2.41
SMILES: CCS(=O)(=O)c1c(-c2nc3cc(C(F)(F)F)cnc3n2C)nc2cc(C(=O)NNC3CC3)ccn12 [Example I-10, N′-Cyclopropyl-3-(ethylsulfonyl)-2-[3-methyl-6-(trifluoromethyl)-3H-imidazo[4,5-b]pyridin-2-yl]imidazo[1,2-a]pyridine-7-carbohydrazide]
pest or weed control at 4 ppm ([4]; 4 ppm, after 5 days): 100% | pest or weed control at 100 g/ha [5, 10]: 90%

SMILES: CCS(=O)(=O)c1c(-c2nc3cc(C(F)(F)F)cnc3n2C)nc2cc(/C=C/C3CC3)ccn12 [Example I-14]
pest or weed control at 100 ppm [2, 9]: 98% | pest or weed control at 4 ppm ([4]; 4 ppm, after 5 days): 100% | pest or weed control at 100 g/ha [5, 10]: 90% | pest or weed control at 100 g/ha [6, 11]: 100% | pest or weed control at 100 g/ha [7, 12]: 100%

chromatographic logP [8, 13]: 2.13
SMILES: CCS(=O)(=O)c1c(-c2nc3cc(C(F)(F)F)cnc3n2C)nc2cc(N)ccn12 [3-(Ethylsulfonyl)-2-[3-methyl-6-(trifluoromethyl)-3H-imidazo[4,5-b]pyridin-2-yl]imidazo[1,2-a]pyridine-7-amine]

SMILES: CCS(=O)(=O)c1c(-c2nc3cc(C(F)(F)F)cnc3n2C)nc2cc(NC(=S)OCC3CC3)ccn12 [Example I-06, O-(Cyclopropylmethyl) {3-(ethylsulfonyl)-2-[3-methyl-6-(trifluoromethyl)-3H-imidazo[4,5-b]pyridin-2-yl]imidazo[1,2-a]pyridin-7-yl}carbamothioate]
chromatographic logP [8]: 3.76 | pest or weed control at 4 ppm [4]: 100% | pest or weed control at 100 g/ha ([6]; in Brassica rapa): 100% | pest or weed control at 100 g/ha ([7]; in Zea mays): 100%

chromatographic logP [8, 13]: 2.76
SMILES: CCOC(=O)c1nc2cc(Br)ccn2c1SCC [Ethyl 7-bromo-3-(ethylsulfanyl)imidazo[1,2-a]pyridine-2-carboxylate]

chromatographic logP [8, 13]: 3.3
SMILES: CCS(=O)(=O)c1c(-c2nc3cc(C(F)(F)F)cnc3n2C)nc2cc(Br)ccn12 [2-[7-Bromo-3-(ethylsulfonyl)imidazo[1,2-a]pyridin-2-yl]-3-methyl-6-(trifluoromethyl)-3H-imidazo[4,5-b]pyridine]

SMILES: CCS(=O)(=O)c1c(-c2nc3cc(C(F)(F)F)cnc3n2C)nc2cc(NC(=O)NC3CC3)ccn12 [Example I-03]
pest or weed control at 100 ppm [2, 9]: 100% | pest or weed control at 100 ppm ([3]; 100 ppm, after 2 days): 100% | pest or weed control at 4 ppm ([4]; 4 ppm, after 5 days): 100% | pest or weed control at 100 g/ha [5, 10]: 100% | pest or weed control at 100 g/ha [6, 11]: 100%

chromatographic logP [8, 13]: 2.54
SMILES: CCS(=O)(=O)c1c(-c2nc3cc(C(F)(F)F)cnc3n2C)nc2cc(CC#N)ccn12 [{3-(Ethylsulfonyl)-2-[3-methyl-6-(trifluoromethyl)-3H-imidazo[4,5-b]pyridin-2-yl]imidazo[1,2-a]pyridin-7-yl}acetonitrile]

SMILES: CCS(=O)(=O)c1c(-c2nc3cc(C(F)(F)F)nnc3n2C)nc2cc(NS(=O)(=O)C3CC3)ccn12 [Example I-26]
pest or weed control at 100 g/ha [5, 10]: 100%

SMILES: CCS(=O)(=O)c1c(-c2nc3cc(C(F)(F)F)cnc3n2C)nc2cc(NC3=CC(=O)OC3)ccn12 [Example I-19]
pest or weed control at 100 g/ha [6, 11]: 100%

SMILES: CCS(=O)(=O)c1c(-c2nc3cc(S(=O)(=O)C(F)(F)F)cnc3n2C)nc2cc(S(=O)(=O)C3CC3)ccn12 [Example I-15]
pest or weed control at 100 g/ha [5, 10]: 90% | pest or weed control at 100 g/ha [6, 11]: 100% | pest or weed control at 100 g/ha [7, 12]: 100%

SMILES: CCS(=O)(=O)c1c(-c2nc3cc(C(F)(F)F)ncc3n2C)nc2cc(S(=O)(=O)NC3CC3)ccn12 [Example I-23]
pest or weed control at 100 g/ha [5, 10]: 90%

SMILES: CCS(=O)(=O)c1c(-c2nc3cc(SC(F)(F)F)cnc3n2C)nc2cc(NC(=O)C3CC3)ccn12 [Example I-13]
efficacy [1]: 100% | pest or weed control at 100 ppm [2, 9]: 100% | pest or weed control at 100 ppm ([3]; 100 ppm, after 2 days): 100% | pest or weed control at 4 ppm ([4]; 4 ppm, after 5 days): 100% | pest or weed control at 100 g/ha [5, 10]: 90% | pest or weed control at 100 g/ha [6, 11]: 100% | pest or weed control at 100 g/ha [7, 12]: 100%
